This assay addresses RIPK1 (recombinant GST-RIPK1 kinase domain, residues 1-327) (Homo sapiens (Human), UniProt Q13546). Briefly: RIPK1-ADP-Glo Enzymatic Assay. The assay is classed as biochemical. The conditions noted are these: ADP-Glo; 25 nM GST-RIPK1, 300 μM ATP; assay lower limit ~25 nM; read-out: RIPK1 V0 Ec50. The method, boiled down: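 ADP-Glo luminescence read after 150 min kinase reaction (300 μM ATP, 3 μM dephosphorylated MBP) using 25 nM Sf21-made GST-kinase domain (1-327), preincubated 30 min with compound. HEPES pH 7.3, 1% DMSO; ten-point 1:3 series from 100000 nM, EC50 via four-parameter sigmoidal regression.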
(In general: In ADP-Glo the light output rises with the ADP produced.)

This note sets out measurements from patent publication US12180226B2, “Spirotricycle RIPK1 inhibitors and methods of uses thereof” (Merck Sharp & Dohme LLC, priority 2021, dated 2024).

Bounds are passed on as bounds.

Sequence of RIPK1 (recombinant GST-RIPK1 kinase domain, residues 1-327) (Q13546 1-327): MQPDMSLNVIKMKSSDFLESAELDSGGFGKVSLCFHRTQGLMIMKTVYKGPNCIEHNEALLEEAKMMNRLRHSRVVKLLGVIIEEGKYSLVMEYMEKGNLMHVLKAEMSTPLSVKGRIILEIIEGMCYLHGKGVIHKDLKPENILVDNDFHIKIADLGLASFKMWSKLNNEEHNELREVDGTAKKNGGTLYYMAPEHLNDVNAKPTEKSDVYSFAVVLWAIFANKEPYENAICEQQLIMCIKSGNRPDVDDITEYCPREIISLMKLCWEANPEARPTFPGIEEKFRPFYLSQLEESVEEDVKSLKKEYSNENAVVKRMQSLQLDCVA

For `Cc1ccncc1C(=O)N1CCC2(CC1)O[C@@H]1CC[C@@H](c3cc(F)cc(F)c3)N1C2=O` [Example 6.51, (5′S,7a′R)-5′-(3,5-difluorophenyl)-1-(4-methylpyridine-3-carbonyl)tetrahydro-3′H-spiro[piperidine-4,2′-pyrrolo[2,1-b] [1,3]oxazol]-3′-one], the EC50 (usually the midpoint of the concentration-response curve) came to 600 nM.

Turning to `CCOc1cnc(N2CCC3(CC2)O[C@@H]2CC[C@@H](c4ccccc4)N2C3=O)n2ncnc12` [Example 19.7, (5′S,7a′R)-1-(8-ethoxy[1,2,4]triazolo [1,5-c]pyrimidin-5-yl)-5′-phenyltetrahydro-3′H-spiro[piperidine-4,2′-pyrrolo[2,1-b][l,3]oxazol]-3′-one], the EC50 worked out at 25 nM.

Take `Cc1cc(F)c(C(=O)N2CCC3(CC2)O[C@@H]2CC[C@@H](c4ccccc4)N2C3=O)cc1F` [Example 5.12, (5′S,7a′R)-1-(2,5-difluoro-4-methylbenzene-1-car-bonyl)-5′-phenyltetra-hydro-3′H-spiro[piperi-dine-4,2′-pyrrolo[2,1-b] [1,3]oxazol]-3′-one]: the 50% effective concentration (EC50) was below 25 nM.

Regarding `O=C1N2[C@@H](CC[C@H]2c2ccccc2)OC12CCN(c1ccc(-c3cscn3)c3ncnn13)CC2` [Example 21.19, (5′S,7a′R)-5′-phenyl-1-[8-(1,3-thiazol-4-yl)[l,2,4]triazolo[1,5-a]pyridin-5-yl]tetrahydro-3′H-spiro[piperidine-4,2′-pyrrolo[2,1-b][1,3]oxazol]-3′-one], the EC50 was below 25 nM.

On to `CCc1cc(C(=O)N2CCC3(CC2)O[C@@H]2CC[C@@H](c4cc(F)cc(F)c4)N2C3=O)no1` [Example 6.62, (5′S,7a′R)-5′-(3,5-difluorophenyl)-1-(5-ethyl-1,2-oxazole-3-carbonyl)tetrahydro-3′H-spiro[piperidine-4,2′-pyrrolo[2,1-b] [1,3]oxazol]-3′-one], for which the EC50 came out at 64.8 nM.

`Cc1nccc(C(=O)N2CCC3(CC2)O[C@@H]2CC[C@@H](c4cc(F)cc(F)c4)N2C3=O)n1` [Example 6.95]: the EC50 turned out to be 245 nM.

For the compound `Cc1nc(N2CCC3(CC2)O[C@@H]2CC[C@@H](c4ccccc4)N2C3=O)ccc1F` [Example 11.33, (5′S,7a′R)-1-(5-fluoro-6-methylpyridin-2-yl)-5′-phenyltetrahydro-3′H-spiro[piperidine-4,2′-pyrrolo[2,1-b][1,3]oxazol]-3′-one], the EC50 was below 25 nM.

Take `N#Cc1cn[nH]c1C(=O)N1CCC2(CC1)O[C@@H]1CC[C@@H](c3cc(F)cc(F)c3)N1C2=O` [Example 5.40, 5-((5′S,7a′R)-5′-(3,5-difluorophenyl)-3′-oxo-tetrahydro-3′H-spiro [piperidine-4,2′-pyrrolo-[2,1-b]oxazole]-1-carbon-yl)-1H-pyrazole-4-car-bonitrile]: the EC50 was determined as 459 nM.

With `O=C(c1nc2cnccc2s1)N1CCC2(CC1)O[C@@H]1CC[C@@H](c3cc(F)cc(F)c3)N1C2=O` [Example 6.44, (5′S,7a′R)-5′-(3,5-difluorophenyl)-1-([1,3]thiazolo[4,5-c]pyridine-2-carbonyl) tetrahydro-3′H-spiro [piperidine-4,2′-pyrrolo[2,1-b][1,3]oxazol]-3′-one], the half-maximal effective concentration (EC50) came to 67.1 nM.

Regarding `O=C(c1cccc2c1CCC2)N1CCC2(CC1)O[C@@H]1CC[C@@H](c3cc(F)cc(F)c3)N1C2=O` [Example 5.29, (5′S,7a′R)-5′-(3,5-difluoro-phenyl)-1-(2,3-dihydro-1H-indene-4-carbonyl)-tetrahydro-3′H-spiro [piperidine-4,2′-pyrrolo-[2,1-b]oxazol]-3′-one], the concentration giving a half-maximal response (EC50) turned out to be 62.2 nM.

With `COc1nc(N2CCC3(CC2)O[C@@H]2CC[C@@H](c4ccccc4)N2C3=O)ncc1-c1ncco1` [Example 21.10, (5′S,7a′R)-1-[4-methoxy-5-(1,3-oxazol-2-yl)pyrimidin-2-yl]-5′-phenyltetrahydro-3′H-spiro[piperidine-4,2′-pyrrolo[2,1-b][1,3]oxazol]-3′-one], the 50% effective concentration (EC50) is below 25 nM.

Turning to `COC(=O)c1ccc(N2CCC3(CC2)O[C@@H]2CC[C@@H](c4ccccc4)N2C3=O)nc1` [Example 4.202, methyl 6-[(5′S,7a′R)-3′-oxo-5′-phenyltetrahydro-1H,3′H-spiro[piperidine-4,2′-pyrrolo[2,1-b] [1,3]oxazol]-1-yl]pyridine-3-carboxylate], the concentration for a half-maximal effect (EC50) is 38.5 nM.

As to `N#Cc1cncc([C@@H]2CC[C@H]3OC4(CCN(c5ccnc6c(F)cnn56)CC4)C(=O)N32)c1` [Example 4.127, 5-[(5′S,7a′R)-1-(3-fluoropyrazolo[1,5-a]pyrimidin-7-yl)-3′-oxotetrahydro-3′H-spiro[piperidine-4,2′-pyrrolo[2,1-b] [1,3]oxazol]-5′-yl]pyridine-3-carbonitrile], the 50% effective concentration (EC50) was below 25 nM.

Turning to `CC1CC2(CCN1c1ccnc3c(F)cnn13)O[C@@H]1CC[C@@H](c3ccccc3)N1C2=O` (stereo partly drawn) [Example 4.224, (4R,5′S,7a′R)-1-(3-fluoropyrazolo[1,5-a]pyrimidin-7-yl)-2-methyl-5′-phenyltetrahydro-3′H-spiro[piperidine-4,2′-pyrrolo[2,1-b] [1,3]oxazol]-3′-one], the EC50 is below 25 nM.

Regarding `COc1cccc(C(=O)N2CCC3(CC2)O[C@@H]2CC[C@@H](c4ccccc4)N2C3=O)c1` [Example 6.155, (5′S,7a′R)-1-(3-methoxybenzene-1-carbonyl)-5′-phenyl-tetrahydro-3′H-spiro [piperidine-4,2′-pyrrolo[2,1-b][1,3]oxazol]-3′-one], the EC50 was below 25 nM.

As to `CC1CN(c2cc(C#N)ncn2)CCC12O[C@@H]1CC[C@@H](c3ccccc3)N1C2=O` (stereo partly drawn) [Example 4.236, 6-[(4R,5′S,7a′R)-3-methyl-3′-oxo-5′-phenyltetrahydro-1H,3′H-spiro[piperidine-4,2′-pyrrolo[2,1-b] [1,3]oxazol]-1-yl]pyrimidine-4-carbonitrile], the EC50 came out at 50 nM.

For the compound `N#Cc1cc(N2CCC3(CC2)O[C@@H]2CC[C@@H](c4ccccc4)N2C3=O)ncn1` [Example 4.40, 6-[(5′S,7a′R)-3′-oxo-5′-phenyltetrahydro-1H,3′H-spiro[piperidine-4,2′-pyrrolo[2,1-b] [1,3]oxazol]-1-yl]pyrimidine-4-carbonitrile], the half-maximal effective concentration (EC50) worked out at 32.2 nM.

Consider `O=C1N2[C@@H](CC[C@H]2c2ccccc2)OC12CCN(c1ncnn3c(F)cnc13)CC2` [Example 4.226, (5′S,7a′R)-1-(7-fluoroimidazo[2,1-f] [1,2,4]triazin-4-yl)-5′-phenyltetrahydro-3′H-spiro[piperidine-4,2′-pyrrolo[2,1-b] [1,3]oxazol]-3′-one], for which the EC50 is below 25 nM.

On to `O=C1N2[C@@H](CC[C@H]2c2ccccc2)OC12CCN(c1ccc(C3CC3)cn1)CC2` [Example 11.19, (5′S,7a′R)-1-(5-cyclopropylpyridin-2-yl)-5′-phenyltetrahydro-3′H-spiro[piperidine-4,2′-pyrrolo[2,1-b][1,3]oxazol]-3′-one], for which the concentration for a half-maximal effect (EC50) was determined as 624 nM.

For the compound `N#Cc1ccc(N2CCC3(CC2)O[C@@H]2CC[C@@H](c4ccccc4)N2C3=O)n2ncnc12` [Example 4.261, 5-[(5′S,7a′R)-3′-oxo-5′-phenyltetrahydro-1H,3′H-spiro[piperidine-4,2′-pyrrolo[2,1-b] [1,3]oxazol]-1-yl][1,2,4]triazolo[1,5-a] pyridine-8-carbonitrile], the EC50 was below 25 nM.
